Common to all, as to assay type: cell-based
Assay [1] deals with Escherichia coli. The assay can be described thus: Minimum inhibitory concentrations (MICs) of Enterobacteriaceae clinical isolates. From the text: (§1) Clinical isolates referenced, minimum inhibitory concentrations (MICs), and categorical susceptibility based on CLSI breakpoints The below list of organisms are examples of clinically-relevant susceptible and resistant Enterobacteriaceae clinical isolates. Minimum inhibitory concentrations (MICs) are provided in μg/mL for the antibiotics listed.
(§2) Isolates, growth conditions, and antibiotic exposure conditions. 25 de-identified clinical isolates were obtained from the UCLA Clinical Microbiology Laboratory (CML) and the CDC's Enterobacteriaceae Carbapenem Breakpoint panel. In the case of isolates obtained from the UCLA CML, MICs were determined as described previously. Genotypic testing of the two Ec and two Kp isolates selected for their lack of known β-lactamase genes was performed by UCLA CML using a previously published assay and separately at the Keck School of Medicine of USC using the FDA-approved Cepheid Xpert® Carba-R test. Whole genome sequencing of the single Ebs isolate selected for its lack of known resistance genes was performed by the CDC [3]. All isolates were stored as glycerol stocks at −80° C. Glycerol stocks were streaked onto Trypticase Soy Agar with 5% sheep's blood (Becton Dickinson, Franklin Lakes, NJ, USA) and grown overnight at 37° C. Prior to experiments, a small clump of cells was resuspended in 2 mL Brain Heart Infusion Broth (BHI, Becton Dickinson) at 37° C.+5% CO2 with 500 rpm shaking for 2 to 4 h until visibly turbid. OD600 of the cultures was then measured, and working cultures prepared at an OD600 of 0.01-0.07 and grown for 50-145 min at 37° C.+5% CO2 with 500 rpm. Working cultures were then diluted 10× into control and treated aliquots for antibiotic exposure. For validation experiments, antibiotic exposure was performed in 100 μL volumes consisting of 80 μL Mueller Hinton II Broth (Becton Dickinson), 5 μL nuclease-free H2O (NF—H2O), 5 μL 20× antibiotic stock solution, and 10 μL of working culture. In control aliquots, antibiotic stock solution was replaced with NF—H2O. For filtration experiments, antibiotic exposure was performed in 100 μL volumes consisting of 65 μL Mueller Hinton II Broth (Becton Dickinson), 21 μL nuclease-free H2O (NF—H2O), 4 μL 25× antibiotic stock solution, and 10 μL of working culture. In control aliquots, antibiotic stock solution was replaced with NF—H2O.

For assay [2], the system named is Klebsiella pneumoniae. Described as above.
Description: as §1, §2

Assay [3] relates to Neisseria gonorrhoeae. Briefly: AST by inaccessible DNA, 2 incubation steps (media; TRIS pH 8.5 enhancing buffer), qPCR (Example 3). The conditions noted are these: 30 min ABX exposure then 20 min TRIS pH 8.5 ± 1% Triton X-100. How it is done:
Antibiotic susceptibility test was performed with methods herein described comprising 2 sequential incubation steps, and in particular • a primary incubation in which a sample is contacted with media, antibiotic (or water in untreated sample), and a nuclease (such as DNaseI), and optionally an enhancer (such as 1% Triton X-100); and • a secondary incubation in which a cell suspension from primary incubation is contacted with enhancers such as 50 mM TRIS buffer at pH 8.5 and/or 1% Triton X-100, possibly using dilution of the cell suspension from the antibiotic exposure by 90-95% (such as 50 μL into 450 μL, 25 μL into 475 μL) removing most antibiotic, culture media, and other components from the primary incubation for the enhancer condition.
The samples were mixed before transferring 25 μL or 50 μL of the sample to the prepared secondary incubation (enhancer) tubes. The charts in step 1 were followed to add the appropriate volume of cells to each tube. Mix the tubes and proceed to step 9 immediately
Extraction was performed following the “DEB Extraction” description in the general methods using Eppendorf tubes. […]
Detection of DNA was performed following the “qPCR” description in the general methods. Quantify all DEB-extracted DNA using the Primer mix=(10 μM forward and reverse) targeting N. gonorrhoeae porA gene. […]
(Quantitative PCR measures a nucleic acid by following its amplification.)

Where only a bound is given, the exact number is not on record here.

As for `CO/N=C(\C(=O)N[C@@H]1C(=O)N2C(C(=O)O)=C(CSc3nc(=O)c(=O)[nH]n3C)CS[C@H]12)c1csc(N)n1` [CRO, ceftriaxone], the “Antibiotic MICs” value was “<=1 μg/mL” in assay [1] (isolate Ec_1); “<=1 μg/mL” in assay [1] (isolate Ec_2); “<=1 μg/mL” in assay [1] (isolate Ec_3); “<=1 μg/mL” in assay [1] (isolate Ec_4); greater than 32 µg/mL in assay [1] (isolate Ec_38); greater than 32 µg/mL in assay [1] (isolate Ec_39). Further, the “Antibiotic MICs” value in assay [1] (isolate Ec_40) is “>=64 μg/mL”; in assay [1] (isolate Ec_41), greater than 32 µg/mL; in assay [2] (isolate Kp_1) it was “<=1 μg/mL”; in assay [2] (isolate Kp_2), “<=1 μg/mL”; in assay [2] (isolate Kp_7), greater than 32 µg/mL; in assay [2] (isolate Kp_8) it was greater than 32 µg/mL.

In the case of penicillin, the results for the “fold change (1/FC) of DNA between 30 and 50 minute measurements” value in assay [3] (resistant isolate (ng_44)) and in assay [3] (susceptible-treated samples (ng_17)) were “approximately 1.5” and greater than 5, respectively.
